Bounds are passed on as bounds.

This is an account of results in US11254696B2, “Dianilinopyrimidine compound for inhibiting kinase activity” (Shenzhen Targetrx, Inc., priority 2017, dated 2022).

Series [1] addresses ALK [L1196M] (Homo sapiens, UniProt Q9UM73, L1196M). In words: Kinase inhibition assay, ALK [L1196M]. Type of series: biochemical. The method, then:
(§1) Compound preparation: The test compounds were dissolved in DMSO to make 20 mM stock solutions. The compounds were diluted in DMSO to 0.1 mM (a dilution with 100 times the final concentration) before use, and a 3-fold series gradient dilution with 11 concentrations was made. Dilutions with 4 times of the final concentration were prepared by diluting with buffer when dosing.
(§2) Kinase assay: after preparing the buffer solution, the enzyme was mixed with pre-diluted compounds with different concentrations, and placed at room temperature for 30 minutes in duplicate. The corresponding substrate and ATP were added thereto and reacted at room temperature for 60 minutes (both a negative and a positive control were set). After the reaction, antibody was added for detection, and after incubation at room temperature for 60 minutes, Evnvision detection was carried out, and data was collected. Data was analyzed and fit according to XLfit5 software. IC50 was calculated by the following formula: (IC50=[(ABS test−ABS begin)/(ABS control−ABS begin)]×100).

Series [2] deals with T1, ALK[L1196M] (Ba/F3) (Homo sapiens, UniProt Q9UM73, L1196M, cells depend on it).
T1 construct: IC50(nM) ALK[L1196M]; (Ba/F3); other: 72 hours, CellTiter-Glo; BaF3 [EMF4-AFK F1196M]; fused on or other part: Q9HC35 (Echinoderm microtubule-associated protein-like 4)
T1 sequence (Q9UM73 whole entry L1196M, the tested form may be a part): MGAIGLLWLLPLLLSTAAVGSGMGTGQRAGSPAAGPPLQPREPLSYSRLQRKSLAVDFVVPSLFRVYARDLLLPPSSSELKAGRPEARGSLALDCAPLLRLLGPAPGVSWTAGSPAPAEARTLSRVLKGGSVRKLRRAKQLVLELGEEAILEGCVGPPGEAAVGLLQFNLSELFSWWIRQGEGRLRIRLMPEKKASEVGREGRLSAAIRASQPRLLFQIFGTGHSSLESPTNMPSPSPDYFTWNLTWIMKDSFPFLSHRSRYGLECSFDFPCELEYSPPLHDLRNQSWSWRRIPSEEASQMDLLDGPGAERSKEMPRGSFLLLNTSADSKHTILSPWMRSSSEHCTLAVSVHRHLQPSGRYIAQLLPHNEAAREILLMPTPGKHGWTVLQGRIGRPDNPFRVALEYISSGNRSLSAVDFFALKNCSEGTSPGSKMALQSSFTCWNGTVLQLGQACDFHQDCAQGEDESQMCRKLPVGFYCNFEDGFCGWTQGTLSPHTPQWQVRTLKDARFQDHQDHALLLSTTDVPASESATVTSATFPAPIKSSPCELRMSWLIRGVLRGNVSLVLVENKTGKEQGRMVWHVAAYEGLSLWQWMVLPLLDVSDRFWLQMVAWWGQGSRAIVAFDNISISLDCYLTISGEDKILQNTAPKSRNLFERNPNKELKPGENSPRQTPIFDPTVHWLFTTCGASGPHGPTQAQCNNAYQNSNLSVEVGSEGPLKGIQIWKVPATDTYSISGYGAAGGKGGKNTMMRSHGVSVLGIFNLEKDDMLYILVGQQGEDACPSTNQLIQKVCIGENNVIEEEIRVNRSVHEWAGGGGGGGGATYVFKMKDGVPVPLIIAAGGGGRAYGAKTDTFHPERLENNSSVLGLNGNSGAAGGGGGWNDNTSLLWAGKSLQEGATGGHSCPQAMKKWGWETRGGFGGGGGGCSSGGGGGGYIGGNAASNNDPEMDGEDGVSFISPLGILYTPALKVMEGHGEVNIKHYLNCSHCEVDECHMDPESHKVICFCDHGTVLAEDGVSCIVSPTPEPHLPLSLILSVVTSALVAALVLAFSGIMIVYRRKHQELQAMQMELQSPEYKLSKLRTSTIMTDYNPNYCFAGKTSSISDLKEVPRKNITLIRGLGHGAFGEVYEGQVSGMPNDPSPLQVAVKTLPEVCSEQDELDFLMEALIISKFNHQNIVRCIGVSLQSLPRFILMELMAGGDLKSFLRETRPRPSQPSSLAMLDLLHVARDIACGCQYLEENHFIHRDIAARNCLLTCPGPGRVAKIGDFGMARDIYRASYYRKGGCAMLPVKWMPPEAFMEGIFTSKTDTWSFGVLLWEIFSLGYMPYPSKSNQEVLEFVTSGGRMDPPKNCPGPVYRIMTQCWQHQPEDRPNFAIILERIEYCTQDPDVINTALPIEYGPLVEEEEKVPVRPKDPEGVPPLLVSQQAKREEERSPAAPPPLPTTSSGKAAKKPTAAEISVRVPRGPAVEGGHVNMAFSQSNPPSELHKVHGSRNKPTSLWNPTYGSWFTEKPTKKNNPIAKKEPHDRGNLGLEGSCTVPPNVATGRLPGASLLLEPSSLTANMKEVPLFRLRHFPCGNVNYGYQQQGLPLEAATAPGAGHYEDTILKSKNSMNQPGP
Briefly: Cytotoxicity test (CellTiter-Glo), BaF3 EML4-ALK L1196M. The conditions noted are these: 72 hours, CellTiter-Glo; read-out: IC50(nM) ALK[L1196M] (Ba/F3). It counts as cell-based. As to the method:
(§3) The in vitro anti-proliferative activity of the compounds of the present disclosure against three types of cells that are cultured in vitro was tested by CellTiter-Glo method.
(§4) Cell lines: BaF3 parental; BaF3 [EML4-ALK] (From WuXi PharmaTech) and BaF3 [EMF4-AFK F1196M] (From WuXi PharmaTech); wherein, BaF3 parental was cultured in RPMI1640 medium containing 10 ng/ml IL-3, 10% fetal bovine serum, 100 U/ml penicillin, and 100 μg/ml streptomycin, BaF3 [EMF4-AFK] and BaF3 [EMF4-AFK F1196M] were cultured in RPMI1640 medium containing 10% fetal bovine serum, 100 U/ml penicillin, and 100 μg/ml streptomycin.
(§5) Reagents and materials: RPMI-1640 (GIBCO, Cat. No. A10491-01); fetal bovine serum (GIBCO, Cat. No. 10099141); 0.25% trypsin-EDTA (GIBCO, Cat. No. 25200); penicillin-streptomycin, liquid (GIBCO, Cat. No. 15140-122); DMSO (Sigma, Cat. No. D2650); CellTiter-Glo Test Kit (Promega, Cat. No. G7572), and 96-well plate (Corning, Cat. No. 3365).
(§6) 1. The test compounds were dissolved in DMSO to make stock solutions and subjected to a series gradient dilution to give solutions with 10-fold working concentration.
(§7) 2. The cells in the logarithmic growth phase were diluted with the culture solution to adjust to the specific cell concentration, 90 μi of cell suspension was added to the 96-well plate to make the cell density reach the specified concentration. The plate was incubated in a incubator at 37° C., containing 5% carbon dioxide gas overnight.
(§8) 3. 10 μl drug solutions were added to each well of the 96-well plate inoculated with cells. 10 concentrations of the compounds were tested starting from the highest concentration of 20 μM with a 3-fold series gradient dilution in duplicate.
(§9) 4. After continuously cultured for 72 hours, the cells were detected by CellTiter-Glo for the cell viability. The dose-effect curve was made using GraphPad Prism software and IC50 was calculated.

In series [3] the test system is ALK[L1196M] (Ba/F3). Described as above. Type of series: cell-based. Conditions: Ba/F3 cells. The method, then: as §3, §4, §5, §6, §7, §8, §9
Series [4] is described as follows: Metabolic stability in rat liver microsomes. Type of series: in vitro ADME. The conditions noted are these: SD, pH 7.4, 1 μM compound, 0.5 mg/mL protein; for microsomal CLint at 1 μM: read-out: CLint (uL/min/mg), Rat liver microsome experiment; for half-life at 1 μM: read-out: t1/2 (min), Rat liver microsome experiment. The method, then: (§10) Experiments in microsomes: Human liver microsomes: 0.5 mg/mL, Xenotech; Rat liver microsomes: 0.5 mg/mL, Xenotech; Coenzyme (NADPH/NADH): 1 mM, Sigma Life Science; Magnesium chloride: 5 mM, 100 mM phosphate buffer (pH 7.4).
(§11) Preparation of stock solution: Powder of the example compounds was accurately weighed and dissolved in DMSO to 5 mM. Preparation of phosphate buffer (100 mM, pH7.4): A pre-formulated 0.5M potassium dihydrogen phosphate (150 mL) was mixed with 0.5M dibasic potassium phosphate (700 mL). The pH of the mixture was adjusted to 7.4 with 0.5M dibasic potassium phosphate solution. The mixture was diluted 5-fold with ultrapure water before use, and magnesium chloride was added to obtain a phosphate buffer (100 mM) containing 100 mM potassium phosphate, 3.3 mM magnesium chloride, pH7.4. A NADPH regeneration system solution (containing 6.5 mM NADP, 16.5 mM G-6-P, 3 U/mL G-6-PD, 3.3 mM magnesium chloride) was prepared and placed on wet ice prior to use. Preparation of stop solution: acetonitrile solution containing 50 ng/mL propranolol hydrochloride and 200 ng/mL tolbutamide (internal standard). 25057.5 μL of phosphate buffer (pH 7.4) was taken into a 50 mL centrifuge tube, to which 812.5 μL human liver microsomes were added, and mixed to obtain a liver microsome dilution solution with a protein concentration of 0.625 mg/mL. 25057.5 μL of phosphate buffer (pH 7.4) was taken into a 50 mL centrifuge tube, to which 812.5 μL SD rat liver microsomes were added, and mixed to obtain a liver microsome dilution solution with a protein concentration of 0.625 mg/mL.
(§12) Incubation of the samples: The stock solution of the respective compound was respectively diluted to 0.25 mM with an aqueous solution containing 70% acetonitrile, and used as a working solution, ready for use. 398 μL of the dilution solution of human liver microsomes or rat liver microsome were added to a 96-well incubation plate (N=2), respectively, and 2 μL of 0.25 mM working solution was added and mixed.
(§13) Metabolic stability assay: 300 μL of pre-chilled stop solution was added to each well of a 96-well deep well plate and placed on ice as a stop plate. The 96 well incubation plate and NADPH regeneration system were placed in a 37° C. water bath box, shaken at 100 rpm and pre-incubated for 5 min. 80 μL of incubation solution was taken out from each well of the incubation plate and added to the stop plate, mixed, and replenished with 20 μL of NADPH regeneration system solution as a 0-min sample. 80 μL of NADPH regeneration system solution was added to each well of the incubation plate to start the reaction and start counting. […] Separately, 100 μL of the reaction solution was taken at 10, 30, and 90 min reaction, respectively, added to a stop plate, and vortexed for 3 minutes to terminate the reaction. The stop plate was centrifuged at 5000×g at 4° C. for 4 min. 100 μL of the supernatant was added to a 96-well plate to which 100 μL of distilled water was previously added, mixed, and analyzed by LC-MS/MS.
(§14) Data analysis: The peak areas of the corresponding compound and internal standard were detected by LC-MS/MS system, and the ratio of the peak area of the compound to the internal standard was calculated.

For series [5], the target named is T2, BaF3 [EML4-ALK] (Homo sapiens, UniProt Q9UM73).
T2 construct: IC50(nM) ALK (Ba/F3); other: 72 hours, CellTiter-Glo; BaF3 [EML4-ALK]; fused on or other part: Q9HC35 (Echinoderm microtubule-associated protein-like 4)
T2 sequence (Q9UM73 whole entry, change not shown, the tested form may be a part): as the sequence (Q9UM73 whole entry L1196M, the tested form may be a part) above, with M1196L counted along it
In words: Cytotoxicity test (CellTiter-Glo), BaF3 [EML4-ALK]. It counts as cell-based. Conditions: 72 hours, CellTiter-Glo; read-out: IC50(nM) ALK (Ba/F3). As to the method:
as §3, §4, §5, §6, §7, §8, §9

The subject of series [6] is BaF3 [EML4-ALK]. In words: Cytotoxicity test (CellTiter-Glo), BaF3 [EML4-ALK]. It counts as cell-based. Conditions: Ba/F3 cells. The method, then: as §3, §4, §5, §6, §7, §8, §9
The target of series [7] is ALK [WT] (Homo sapiens, UniProt Q9UM73). Briefly: Kinase inhibition assay, ALK [WT]. Type of series: biochemical. The method, then:
as §1, §2

The subject of series [8] is BaF3 parental. Briefly: Cytotoxicity test (CellTiter-Glo), BaF3 parental. Type of series: cell-based. Conditions: Mus musculus, 72 hours, read-out: IC50(nM) parental (Ba/F3). As to the method: as §3, §4, §5, §6, §7, §8, §9
Series [9] is described as follows: Metabolic stability in human liver microsomes. It counts as in vitro ADME. The conditions noted are these: pH 7.4, 1 μM compound, 0.5 mg/mL protein; for microsomal CLint at 1 μM: read-out: CLint (uL/min/mg), Human liver microsome experiment; for half-life at 1 μM: read-out: t1/2 (min), Human liver microsome experiment. As to the method: as §10, §11, §12, §13, §14

Sequence of ALK [WT] (Q9UM73 19-1620): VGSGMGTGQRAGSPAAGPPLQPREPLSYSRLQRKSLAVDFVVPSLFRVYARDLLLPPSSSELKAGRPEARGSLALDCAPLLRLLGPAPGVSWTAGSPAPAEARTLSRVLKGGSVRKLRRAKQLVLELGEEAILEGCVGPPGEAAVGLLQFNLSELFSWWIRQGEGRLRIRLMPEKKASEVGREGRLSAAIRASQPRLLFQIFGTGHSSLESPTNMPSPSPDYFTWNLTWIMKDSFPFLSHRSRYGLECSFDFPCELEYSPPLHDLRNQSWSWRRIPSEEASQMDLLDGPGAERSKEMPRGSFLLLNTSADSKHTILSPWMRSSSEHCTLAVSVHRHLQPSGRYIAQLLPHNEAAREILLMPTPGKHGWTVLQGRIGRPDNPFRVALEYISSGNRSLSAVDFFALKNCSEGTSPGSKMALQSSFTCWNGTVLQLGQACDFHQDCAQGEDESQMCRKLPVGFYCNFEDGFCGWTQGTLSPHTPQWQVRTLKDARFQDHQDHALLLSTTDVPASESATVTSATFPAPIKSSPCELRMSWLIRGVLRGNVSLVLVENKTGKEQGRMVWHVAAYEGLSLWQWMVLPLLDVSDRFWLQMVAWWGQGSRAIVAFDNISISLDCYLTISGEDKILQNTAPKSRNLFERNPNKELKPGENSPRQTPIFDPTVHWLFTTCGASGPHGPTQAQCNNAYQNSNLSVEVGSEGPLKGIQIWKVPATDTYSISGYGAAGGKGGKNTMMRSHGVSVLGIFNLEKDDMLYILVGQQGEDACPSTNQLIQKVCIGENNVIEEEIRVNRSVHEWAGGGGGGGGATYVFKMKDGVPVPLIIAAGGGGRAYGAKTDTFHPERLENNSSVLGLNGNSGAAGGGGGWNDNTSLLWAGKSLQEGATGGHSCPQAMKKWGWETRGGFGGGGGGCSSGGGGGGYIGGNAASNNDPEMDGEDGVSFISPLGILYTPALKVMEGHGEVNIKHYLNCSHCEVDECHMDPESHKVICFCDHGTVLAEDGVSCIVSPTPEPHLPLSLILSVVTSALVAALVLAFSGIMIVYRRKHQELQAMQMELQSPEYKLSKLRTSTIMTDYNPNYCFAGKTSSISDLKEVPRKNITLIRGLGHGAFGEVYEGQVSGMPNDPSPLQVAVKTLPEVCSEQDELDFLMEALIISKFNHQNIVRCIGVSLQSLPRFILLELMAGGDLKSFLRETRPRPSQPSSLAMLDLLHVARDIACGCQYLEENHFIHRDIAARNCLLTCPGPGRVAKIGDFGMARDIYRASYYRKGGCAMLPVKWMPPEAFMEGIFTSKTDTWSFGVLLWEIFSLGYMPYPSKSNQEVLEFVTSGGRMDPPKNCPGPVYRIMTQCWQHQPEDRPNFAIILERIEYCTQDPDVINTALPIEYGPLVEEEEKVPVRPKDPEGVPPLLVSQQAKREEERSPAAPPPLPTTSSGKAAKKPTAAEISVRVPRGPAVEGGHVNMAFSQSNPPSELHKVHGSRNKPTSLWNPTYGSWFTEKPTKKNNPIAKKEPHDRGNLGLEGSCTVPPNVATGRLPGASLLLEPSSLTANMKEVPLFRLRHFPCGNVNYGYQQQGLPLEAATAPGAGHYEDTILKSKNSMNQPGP
Sequence of ALK [L1196M] (Q9UM73 19-1620 L1196M): as the sequence (Q9UM73 19-1620) above, with L1178M counted along it

With `CNC(C)c1ccc(Nc2ncc(Cl)c(Nc3ccccc3P(C)(C)=O)n2)c(OC)c1` (stereo not drawn) [Example 9, (2-((5-chloro-2-((4-(1-(methylamino)ethyl)-2-methoxyphenyl)amino)pyrimidin-4-yl)amino)phenyl)dimethylphosphine oxide], the IC50 was 2 to 5 nM in [1], 2 to 5 nM in series [7] and at least 1000 nM in series [8]. Also, the GI50 in series [2] fell in the range of 200 to 1000 nM; in series [5] it was 50 to 100 nM. Besides, the “Selectivity parental/ALK[L1196M]” value in series [3] is on record as under 50. Besides, the microsomal CLint at 1 μM amounted to 9.9 µL/min/mg in series [4] and 11.3 µL/min/mg in [9]. Moreover, the results for the half-life at 1 μM in series [4] and in [9] were 140 min and 123 min, respectively. Moreover, in [6], the “Selectivity parental/ALK” value was 50 to 100.

`COc1cc(CCN)ccc1Nc1ncc(Cl)c(Nc2ccccc2P(C)(C)=O)n1` [Example 2, (2-((2-((4-(2-aminoethyl)-2-methoxyphenyl)amino)-5-chloropyrimidin-4-yl)amino)phenyl)dimethylphosphine oxide]: the values for the IC50 in series [1], in [7] and in series [8] were 2 to 5 nM, at most 2 nM and at least 1000 nM, respectively. Besides, the GI50 in series [2] was 200 to 1000 nM; in [5], 100 to 200 nM. Besides, the “Selectivity parental/ALK[L1196M]” value in series [3] is listed as under 50. The microsomal CLint at 1 μM in [4] stood at 8.4 µL/min/mg; in series [9], 8.7 µL/min/mg. Moreover, the half-life at 1 μM amounted to 165 min in [4] and 160 min in [9]. Besides, the “Selectivity parental/ALK” value in series [6] was under 50.

For `COc1cc(CCN2CCOCC2)ccc1Nc1ncc(Cl)c(Nc2ccccc2P(C)(C)=O)n1` [Example 6, (2-((5-chloro-2-((2-methoxy-4-(2-morpholinoethyl)phenyl)amino)pyrimidin-4-yl)amino)phenyl)dimethylphosphine oxide], the figures for the IC50 in [1], in [7] and in [8] were 2 to 5 nM, 2 to 5 nM and at least 1000 nM, respectively. In addition, the GI50 was 100 to 200 nM in series [2] and under 25 nM in [5]. The “Selectivity parental/ALK[L1196M]” value in series [3] is reported as under 50. Besides, the microsomal CLint at 1 μM is 85.1 µL/min/mg in [4] and 29.1 µL/min/mg in series [9]. The half-life at 1 μM in series [4] amounted to 16.3 min; in series [9] it was 47.6 min. Also, the “Selectivity parental/ALK” value in [6] was in the range of 200 to 500.

Regarding `COc1cc(C(C)(C)N(C)C)ccc1Nc1ncc(Cl)c(Nc2ccccc2P(C)(C)=O)n1` [Example 14, (2-((5-chloro-2-((4-(2-(dimethylamino)propan-2-yl)-2-methoxyphenyl)amino)pyrimidin-4-yl)amino)phenyl)dimethylphosphine oxide], the results for the IC50 in series [1], in [7] and in [8] were 2 to 5 nM, at most 2 nM and at least 1000 nM, respectively. The GI50 in series [2] was 50 to 100 nM; in [5], under 25 nM. In series [3], the “Selectivity parental/ALK[L1196M]” value was under 50. The results for the microsomal CLint at 1 μM in [4] and in [9] were 33.4 µL/min/mg and 29.9 µL/min/mg, respectively. The half-life at 1 μM came to 41.5 min in series [4] and 46.4 min in series [9]. For the same compound, the “Selectivity parental/ALK” value in series [6] is on record as 100 to 200.

`COc1cc(C(C)N(C)C)ccc1Nc1ncc(Cl)c(Nc2ccccc2P(C)(C)=O)n1` (stereo not drawn) [Example 8, (2-((5-chloro-2-((4-(1-(dimethylamino)ethyl)-2-methoxyphenyl)amino)pyrimidin-4-yl)amino)phenyl)dimethylphosphine oxide]: the IC50 in series [1] is 2 to 5 nM; in [7], 2 to 5 nM; in series [8] it was at least 1000 nM. Also, the figures for the GI50 in series [2] and in series [5] were 100 to 200 nM and 25 to 50 nM, respectively. In addition, the “Selectivity parental/ALK[L1196M]” value in series [3] was under 50. The microsomal CLint at 1 μM in series [4] stood at 28.8 µL/min/mg; in series [9], 24.6 µL/min/mg. Moreover, the figures for the half-life at 1 μM in [4] and in series [9] were 48.2 min and 56.3 min, respectively. Besides, the “Selectivity parental/ALK” value in series [6] is 100 to 200.

Regarding `COc1cc(CCN(C)C)c(C)cc1Nc1ncc(Cl)c(Nc2ccccc2P(C)(C)=O)n1` [Example 20, (2-((5-chloro-2-((4-(2-(dimethylamino)ethyl)-2-methoxy-5-methylphenyl)amino)pyrimidin-4-yl)amino)phenyl)dimethylphosphine oxide], the figures for the IC50 in series [1], in [7] and in series [8] were 2 to 5 nM, 2 to 5 nM and at least 1000 nM, respectively. The GI50 in series [2] and in series [5] was 25 to 50 nM throughout. Moreover, the “Selectivity parental/ALK[L1196M]” value in series [3] was in the range of 50 to 100. Also, the microsomal CLint at 1 μM in series [4] worked out at 32.3 µL/min/mg; in series [9], 5.4 µL/min/mg. The half-life at 1 μM in [4] was found to be 42.9 min; in [9] it was 259 min. The “Selectivity parental/ALK” value in series [6] was in the range of 50 to 100.
